Literature values in patent publication US9078464B2 (EDIO HEALTHCARE AB, priority 2008, dated 2015).

Details: in vivo

- absorption from the intestine: around 60%
Compound: CC(C)CCC[C@@H](C)[C@H]1CC[C@H]2[C@@H]3CC=C4C[C@@H](O)CC[C@]4(C)[C@H]3CC[C@]12C [cholesterol]
